According to US4425435A, “Cholesterol oxidase and process for producing same” (Takara Shuzo Co., Ltd., priority 1980, dated 1984):

Tested on: cholesterol oxidase
Assay: Effect of inhibitors etc. on activity of the present enzymes
Format: biochemical, Basidiomycetes
Conditions: not given
Method: The enzymatic activity is determined by measurement of the hydrogen peroxide produced by the reaction of the enzyme solution on the substrate cholesterol. The method is based on the sequence of reactions as follows: Thus cholesterol is oxidized by cholesterol oxidase to cholest-5-en-3-one with the evolution of hydrogen peroxide, which couples with 4-aminoantipyrine and phenol in the presence of peroxidase to yield a quinoneimine dye with maximum absorption at 500 nm. To conduct this reaction there is used a reaction mixture, in a final volume of 3.0 ml, composed of 0.1 ml of the enzyme solution, 2 μmoles of cholesterol in 0.1 ml of ethanol, 250 μmoles of phosphate buffer, pH 7.0, 2.46 μmoles of 4-aminoantipyrine, 42 μmoles of phenol, and 24 units of peroxidase obtained from horseradish. The reaction is carried out at 37° C. for 10 minutes with shaking. One unit of cholesterol oxidase activity was defined as the amount of the enzyme which catalyzes the oxidation of 1 μmole of cholesterol per minute at 37° C.

| Molecule | inhibition of the enzyme activity | prevention of inhibition caused by Cu^2+ and Hg^2+ |
| --- | --- | --- |
| [Cu+2] [Cu^2+] | markedly inhibited |  |
| c1ccc(-c2ccccn2)nc1 [α,α'-dipyridyl] | not inhibitory |  |
| O=C(O)CN(CCN(CC(=O)O)CC(=O)O)CC(=O)O [EDTA] | not inhibitory |  |
| [Hg+2] [Hg^2+] | markedly inhibited |  |
| N[C@@H](CCC(=O)N[C@@H](CS)C(=O)NCC(=O)O)C(=O)O [glutathione] |  | almost completely prevented |
| [Ni+2] [Ni^2+] | do not inhibit |  |
| [Fe+2] [Fe^2+] | do not inhibit |  |
| c1cnc2c(c1)ccc1cccnc12 [o-phenanthroline] | not inhibitory |  |
| Oc1cccc2cccnc12 [β-hydroxyquinoline] | not inhibitory |  |
| [Mg+2] [Mg^2+] | do not inhibit |  |
| [Co+2] [Co^2+] | do not inhibit |  |
| [Ba+2] [Ba^2+] | do not inhibit |  |
| [Ca+2] [Ca^2+] | do not inhibit |  |
| [Mn+2] [Mn^2+] | do not inhibit |  |

Same assay, conditions: 0.01% of Triton X-100

| Molecule | inhibition of the enzyme activity by detergent |
| --- | --- |
| Triton X-100 | inhibit almost completely |

Tested on: cholesterol oxidase
Assay: Substrate specificity: hydrogen peroxide decomposed with peroxidase, chromogen colour
Format: biochemical, Basidiomycetes
Conditions: hydrogen peroxide liberated from dehydrogenation of the 3β-position

| Molecule | enzyme acts on the sterol (substrate specificity) |
| --- | --- |
| CC[C@H](CC[C@@H](C)[C@H]1CC[C@H]2[C@@H]3CC=C4C[C@@H](O)CC[C@]4(C)[C@H]3CC[C@]12C)C(C)C [β-cytosterol] | act on |
| C[C@]12CC[C@H](O)CC1=CC[C@@H]1[C@@H]2CC[C@]2(C)C(=O)CC[C@@H]12 [dehydroepiandrosterone] | act on |
| CC(C)[C@H](C)CC[C@@H](C)[C@H]1CC[C@H]2[C@@H]3CC=C4C[C@@H](O)CC[C@]4(C)[C@H]3CC[C@]12C [campesterol] | act on |
| CC(=O)[C@H]1CC[C@H]2[C@@H]3CC=C4C[C@@H](O)CC[C@]4(C)[C@H]3CC[C@]12C [pregnenolone] | act on |
| CC(C)CCC[C@@H](C)[C@H]1CC[C@H]2[C@@H]3CC=C4C[C@@H](O)CC[C@]4(C)[C@H]3CC[C@]12C [cholesterol] | act on |
| CC(C)[C@@H](C)/C=C/[C@@H](C)[C@H]1CC[C@H]2C3=CC=C4C[C@@H](O)CC[C@]4(C)[C@H]3CC[C@]12C [ergosterol] | act on |
| CC[C@H](/C=C/[C@@H](C)[C@H]1CC[C@H]2[C@@H]3CC=C4C[C@@H](O)CC[C@]4(C)[C@H]3CC[C@]12C)C(C)C [stigmasterol] | act on |
| CC(C)CCC[C@@H](C)[C@H]1CC[C@H]2[C@@H]3CC[C@H]4C[C@@H](O)CC[C@]4(C)[C@H]3CC[C@]12C [β-cholestanol] | act on |
| C[C@@H](O)[C@H]1CC[C@H]2[C@@H]3CC[C@H]4C[C@@H](O)CC[C@]4(C)[C@H]3CC[C@]12C [5α-pregnan-3β,20β-diol] | act on |
